Patent US9718828B2 (MERCK SHARP & DOHME CORP., priority 2011, dated 2017)
Where a name gives a salt, the structure may show the parent alone. Read-outs that look alike come from different tables or passages of the source.

Target: Btk enzyme (His-Btk) (Homo sapiens (Human), UniProt Q06187)
Assay: Btk enzyme activity, IMAP fluorescence polarization assay (Assay Method A)
[1] = read-out: EC50 Btk activity values - Assay Method A, IMAP-FP, 60 min pre-incubation, 5 μM ATP, class 100-1000 is given as ≧100 nM-<1 μM

Btk enzyme (His-Btk), sequence (Q06187 whole entry): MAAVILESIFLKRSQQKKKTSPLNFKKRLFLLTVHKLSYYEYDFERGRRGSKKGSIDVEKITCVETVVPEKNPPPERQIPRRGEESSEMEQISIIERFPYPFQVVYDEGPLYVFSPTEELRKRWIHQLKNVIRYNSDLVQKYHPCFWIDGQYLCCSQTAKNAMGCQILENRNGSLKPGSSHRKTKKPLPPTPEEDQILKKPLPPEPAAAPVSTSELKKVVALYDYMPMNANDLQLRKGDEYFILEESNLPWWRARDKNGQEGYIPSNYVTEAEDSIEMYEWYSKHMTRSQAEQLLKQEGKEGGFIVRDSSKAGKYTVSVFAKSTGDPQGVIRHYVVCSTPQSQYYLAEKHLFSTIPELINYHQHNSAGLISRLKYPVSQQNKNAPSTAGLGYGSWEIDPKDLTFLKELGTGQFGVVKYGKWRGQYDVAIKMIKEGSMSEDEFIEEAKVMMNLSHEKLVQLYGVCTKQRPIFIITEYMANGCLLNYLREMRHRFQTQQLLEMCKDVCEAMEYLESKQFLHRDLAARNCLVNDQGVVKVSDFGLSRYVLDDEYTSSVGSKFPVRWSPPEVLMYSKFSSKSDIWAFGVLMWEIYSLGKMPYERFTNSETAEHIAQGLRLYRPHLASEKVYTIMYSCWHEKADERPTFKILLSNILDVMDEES

SMILES | EC50 [1] [nM] | EC50 [nM]
Nc1nccn2c(N3CCCC(C(=O)NC4CC(F)(F)C4)C3)nc(-c3ccc(C(=O)Nc4cc(C(F)(F)F)ccn4)cc3)c12 (centres unmarked) [Example 226, 1-(8-amino-1-(4-(4-(trifluoromethyl)pyridin-2-ylcarbamoyl)phenyl)imidazo[1,5-a]pyrazin-3-yl)-N-(3,3-difluorocyclobutyl)piperidine-3-carboxamide, TFA salt] | < 10 | 
Nc1nccn2c1c(-c1ccc(C(=O)Nc3nc4c(s3)CCCC4)cc1)nc2[C@H]1CC[C@H](O)CC1 [Example 8, 4-(8-amino-3-((trans)-4-hydroxycyclohexyl)imidazo[1,5-a]pyrazin-1-yl)-N-(4,5,6,7-tetrahydrobenzo[d]thiazol-2-yl)benzamide] | < 10 | 
Nc1nccn2c([C@@H]3C[C@H](O)CN(C(=O)C4CC4)C3)nc(-c3ccc(C(=O)Nc4cc(C(F)(F)F)ccn4)cc3)c12 (relative stereo) [Example 180, 4-(8-amino-3-((cis)-1-(cyclopropanecarbonyl)-5-hydroxypiperidin-3-yl)imidazo[1,5-a]pyrazin-1-yl)-N-(4-(trifluoromethyl)pyridin-2-yl)benzamide] | < 10 | 
Nc1nccn2c(C3CN(C(=O)C4CC4)CCO3)nc(-c3ccc(C(=O)Nc4cc(C(F)(F)F)ccn4)cc3)c12 (centres unmarked) [Example 176, 4-(8-amino-3-(4-(cyclopropanecarbonyl)morpholin-2-yl)imidazo[1,5-a]pyrazin-1-yl)-N-(4-(trifluoromethyl)pyridin-2-yl)benzamide] | < 10 | 
N#Cc1ccc(C(=O)N2CCC[C@@H](c3nc(-c4ccc(C(=O)Nc5cc(C6CC6)ccn5)cc4)c4c(N)nccn34)C2)cn1 [Example 117, (R)-4-(8-amino-3-(1-(6-cyanonicotinoyl)piperidin-3-yl)imidazo[1,5-a]pyrazin-1-yl)-N-(4-cyclopropylpyridin-2-yl)benzamide .] | < 10 | 
Nc1nccn2c1c(-c1ccc(C(=O)Nc3ccccn3)cc1)nc2[C@H]1CC[C@H](O)CC1 [Example 1, 4-(8-amino-3-((trans)-4-hydroxycyclohexyl)imidazo[1,5-a]pyrazin-1-yl)-N-(pyridin-2-yl)benzamide] |  | 10 to 100
[2H]C([2H])([2H])c1cnc(N)c2c(-c3ccc(C(=O)Nc4cc(C(F)(F)F)ccn4)cc3)nc([C@@H]3CCCN(C(=O)C4(C)COC4)C3)n12 [Example 317, (R)-4-(8-amino-5-deuteromethyl-3-(1-(3-methyloxetane-3-carbonyl)piperidin-3-yl)imidazo[1,5-a]pyrazin-1-yl)-N-(4-(trifluoromethyl)pyridin-2-yl)benzamide] |  | < 10
Nc1nccn2c([C@@H]3CCCN(CC(O)CO)C3)nc(-c3ccc(C(=O)Nc4cc(C(F)(F)F)ccn4)cc3)c12 (stereo partly drawn) [Example 139, 4-(8-amino-3-((3R)-1-(2,3-dihydroxypropyl)piperidin-3-yl)imidazo[1,5-a]pyrazin-1-yl)-N-(4-(trifluoromethyl)pyridin-2-yl)benzamide, TFA salt] | < 10 | 
CCOC(=O)N1CCCC(c2cc(-c3ccc(C(=O)Nc4cc(C(F)(F)F)ccn4)cc3)c3c(N)ncnn23)C1 (centres unmarked) [Example 251, ethyl 3-(4-amino-5-(4-(4-(trifluoromethyl)pyridin-2-ylcarbamoyl)phenyl)pyrrolo[1,2-f][1,2,4]triazin-7-yl)piperidine-1-carboxylate] |  | < 10
Nc1nccn2c1c(-c1ccc(C(=O)Nc3cc(C(F)(F)F)ccn3)cc1)nc2[C@H]1CC[C@H](O)CC1 [Example 2, 4-(8-amino-3-((trans)-4-hydroxycyclohexyl)imidazo[1,5-a]pyrazin-1-yl)-N-(4-(trifluoromethyl)pyridin-2-yl)benzamide] | < 10 | 
CCOC(=O)C1CC1CN1CCC[C@@H](c2nc(-c3ccc(C(=O)Nc4ccccn4)cc3)c3c(N)nccn23)C1 (stereo partly drawn) [Example 137, ethyl 2-(((R)-3-(8-amino-1-(4-(pyridin-2-ylcarbamoyl)phenyl)imidazo [1,5-a]pyrazin-3-yl)piperidin-1-yl)methyl) cyclopropanecarboxylate, TFA salt] |  | 100 to 1000
Cc1nc(-c2ccc(C(=O)Nc3cc(C(F)(F)F)ccn3)cc2)c2c(N)ncc(C(=O)NCc3cccnc3)n12 [Example 296, 8-amino-3-methyl-N-(pyridin-3-ylmethyl)-1-(4-(4-(trifluoromethyl)pyridin-2-ylcarbamoyl)phenyl)imidazo[1,5-a]pyrazine-5-carboxamide] |  | 100 to 1000

Now from value to compound:

EC50 [1] [nM] | EC50 [nM] | SMILES
 | 100 to 1000 | Nc1nccn2c(C3CCOCC3)nc(-c3ccc(C(=O)Nc4nccs4)cc3)c12 [Example 29, 4-(8-amino-3-(tetrahydro-2H-pyran-4-yl)imidazo[1,5-a]pyrazin-1-yl)-N-(thiazol-2-yl)benzamide]
< 10 |  | CCN(CC)C(=O)C1CCCN(c2nc(-c3ccc(C(=O)Nc4cc(C5CC5)ccn4)cc3)c3c(N)nccn23)C1 (centres unmarked) [Example 246, 1-(8-amino-1-(4-(4-cyclopropylpyridin-2-ylcarbamoyl)phenyl)imidazo[1,5-a]pyrazin-3-yl)-N,N-diethylpiperidine-3-carboxamide, TFA salt]
< 10 |  | CSCCC(=O)N1C[C@H](c2nc(-c3ccc(C(=O)Nc4cc(C(F)(F)F)ccn4)cc3)c3c(N)nccn23)CC[C@@H]1C (relative stereo) [Example 195, 4-(8-amino-3-((cis)-6-methyl-1-(3-(methylthio)propanoyl)piperidin-3-yl)imidazo[1,5-a]pyrazin-1-yl)-N-(4-(trifluoromethyl)pyridin-2-yl)benzamide, TFA salt]
 | < 10 | Nc1nccn2c([C@@H]3CCCN(C(=O)C4CSC4)C3)nc(-c3ccc(C(=O)Nc4cc(C(F)(F)F)ccn4)cc3)c12 [Example 86, (R)-4-(8-amino-3-(1-(thietane-3-carbonyl)piperidin-3-yl)imidazo[1,5-a]pyrazin-1-yl)-N-(4-(trifluoromethyl)pyridin-2-yl)benzarnide]
 | 10 to 100 | CCC(F)(F)C(=O)N1CCC[C@@H](c2nc(-c3ccc(C(=O)Nc4ccccn4)cc3)c3c(N)nccn23)C1 [Example 93, (R)-4-(8-amino-3-(1-(2,2-difluorobutanoyl)piperidin-3-yl)imidazo[1,5-a]pyrazin-1-yl)-N-(pyridin-2-yl)benzamide]
< 10 |  | Nc1nccn2c([C@@H]3CCC[C@@H](NC(=O)C4CC4)C3)nc(-c3ccc(C(=O)Nc4cc(C(F)(F)F)ccn4)cc3)c12 (relative stereo) [Example 164, 4-(8-amino-3-((trans)-3-(cyclopropanecarboxamido)cyclohexyl)imidazo[1,5-a]pyrazin-1-yl)-N-(4-(trifluoromethyl)pyridin-2-yl)benzamide]
 | < 10 | Nc1nccn2c([C@@H]3CCCN(C(=O)[C@H]4CC(=O)N4)C3)nc(-c3ccc(C(=O)Nc4cc(C(F)(F)F)ccn4)cc3)c12 [Example 87, 4-(8-amino-3-((R)-1-((R)-4-oxoazetidine-2-carbonyl)piperidin-3-yl)imidazo[1,5-a]pyrazin-1-yl)-N-(4-(trifluoromethyl)pyridin-2-yl)benzamide]
 | 10 to 100 | CSCCC(=O)N1C[C@H](c2nc(-c3ccc(C(=O)Nc4cc(C(F)(F)F)ccn4)cc3)c3c(N)nccn23)CC[C@H]1C (relative stereo) [Example 187, 4-(8-amino-3-((trans)-6-methyl-1-(3-(methylthio)propanoyl)piperidin-3-yl)imidazo[1,5-a]pyrazin-1-yl)-N-(4-(trifluoromethyl)pyridin-2-yl)benzamide, TFA salt]
